From ChEMBL document CHEMBL5329222, “Discovery of novel tubulin CBSI (R)-9k from the indanone scaffold for the treatment of colorectal cancer” (RSC Med Chem, 2023)
Calls of active or inactive are those of the source. The calls are words filed in the database; no cut-off is given here.

Tests used:
[1] = tested on: A2780; test: Antiproliferative activity against human A2780 cells assessed as inhibition of cell growth incubated for 1.5 hrs by CCK-8 assay; type: functional, cell-based
[2] = tested on: HeLa; test: Antiproliferative activity against human HeLa cells assessed as inhibition of cell growth incubated for 1.5 hrs by CCK-8 assay; type: functional, cell-based
[3] = tested on: HCT-116; test: Antiproliferative activity against human HCT-116 cells assessed as inhibition of cell growth incubated for 1.5 hrs by CCK-8 assay; type: functional, cell-based; conditions: HCT-116, 1.5 h
[4] = Cytotoxicity against human HUVEC cells assessed as inhibition of cell growth incubated 1.5 hrs by MTT assay; type: toxicity, cell-based
[5] = tested on: SW480; test: Growth inhibition of human SW480 cells incubated for 1.5 hrs by MTT assay; type: functional, cell-based
[6] = Cytotoxicity against HEK293 cells assessed as inhibition of cell growth incubated 1.5 hrs by MTT assay; type: toxicity, cell-based; conditions: human
[7] = tested on: A2780; test: Growth inhibition of human A2780 cells incubated for 1.5 hrs by MTT assay; type: functional, cell-based; conditions: A2780, 1.5 h
[8] = tested on: CT26; test: Growth inhibition of CT26 cells incubated for 1.5 hrs by MTT assay; type: functional, cell-based; conditions: Mus musculus, CT26, 1.5 h
[9] = tested on: MDA-MB-231; test: Antiproliferative activity against human MDA-MB-231 cells assessed as inhibition of cell growth incubated for 24 hrs by MTT assay; type: functional, cell-based; conditions: MDA-MB-231, 24 h
[10] = tested on: MCF7; test: Antiproliferative activity against human MCF7 cells assessed as inhibition of cell growth incubated for 24 hrs by MTT assay; type: functional, cell-based; conditions: MCF7, 24 h
[11] = target: Estrogen receptor beta (Homo sapiens, UniProt Q92731); test: Binding affinity to human recombinant ERbeta incubated for 20 mins
[12] = target: Tubulin beta (Homo sapiens) (UniProt P68371+Q9H4B7+Q13509+P04350+Q3ZCM7+P07437+Q13885+Q9BVA1+Q9BUF5+A6NNZ2); test: Binding affinity to beta-tubulin colchicine binding site in human HCT-116 cells assessed as inhibition of EBI-beta-tubulin adduct band formation at 5 to 25 uM preincubated for 2 hrs followed by EBI addition measured after 1.5 hrs by EBI competition based Western blotting analysis; type: cell-based; conditions: dose 5-25 µM, time 3.5 hrs
[13] = target: Tubulin; test: Inhibition of tubulin (unknown origin) polymerization; type: protein-complex assay, Homo sapiens
[14] = tested on: HeLa; test: Growth inhibition of human HeLa cells incubated for 1.5 hrs by MTT assay; type: functional, cell-based
[15] = tested on: HCT-116; test: Growth inhibition of human HCT-116 cells incubated for 1.5 hrs by MTT assay; type: functional, cell-based; conditions: HCT-116, 1.5 h
[16] = tested on: HeLa; test: Potency index, ratio of 5-fluorouracil IC50 to test compound IC50 for antiproliferative activity against human HeLa cells assessed as inhibition of cell growth; type: functional
[17] = tested on: HCT-116; test: Potency index, ratio of 5-fluorouracil IC50 to test compound IC50 for antiproliferative activity against human HCT-116 cells assessed as inhibition of cell growth; type: functional
[18] = tested on: A2780; test: Potency index, ratio of 5-fluorouracil IC50 to test compound IC50 for antiproliferative activity against human A2780 cells assessed as inhibition of cell growth; type: functional
[19] = tested on: HCT-116; test: Inhibition of colony formation in human HCT-116 cells at 0.1 uM incubated for 48 hrs by crystal violet staining based analysis; type: functional

Chain of Estrogen receptor beta (Q92731 whole entry): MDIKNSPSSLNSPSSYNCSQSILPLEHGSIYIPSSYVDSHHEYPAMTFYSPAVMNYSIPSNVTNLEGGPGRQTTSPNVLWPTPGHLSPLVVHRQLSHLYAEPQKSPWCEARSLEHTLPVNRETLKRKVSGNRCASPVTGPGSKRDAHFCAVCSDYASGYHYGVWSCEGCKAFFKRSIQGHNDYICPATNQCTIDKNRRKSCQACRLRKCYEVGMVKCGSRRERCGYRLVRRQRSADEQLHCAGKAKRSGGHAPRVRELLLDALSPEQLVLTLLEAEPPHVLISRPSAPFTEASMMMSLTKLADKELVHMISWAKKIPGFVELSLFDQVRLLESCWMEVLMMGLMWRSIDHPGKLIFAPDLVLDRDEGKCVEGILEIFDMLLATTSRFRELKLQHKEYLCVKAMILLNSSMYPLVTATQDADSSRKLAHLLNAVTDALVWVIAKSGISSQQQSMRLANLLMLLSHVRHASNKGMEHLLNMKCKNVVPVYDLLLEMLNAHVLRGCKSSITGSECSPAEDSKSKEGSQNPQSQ

Compound	IC50 [1]	IC50 [2]	IC50 [3]	further results
COc1ccc(C2CC(=O)c3cc(OC)c(OC)c(OC)c32)cc1 (stereo not drawn)	0.69 µM	0.43 µM	1.88 µM	
O=c1[nH]cc(F)c(=O)[nH]1 [FLUOROURACIL]	36.3 µM	15.7 µM		IC50 at 1.5 h [4]: 0.43 µM; IC50 [5]: 37.5 µM; IC50 at 1.5 h [6]: 5.11 µM; IC50 [7]: 32.1 µM; IC50 [8]: 59.2 µM
COc1cc(C2CC(=O)c3cc(OC)c(OC)c(OC)c32)ccc1Cl (stereo not drawn)	> 100 µM	> 100 µM	> 100 µM	
COc1ccc([C@@H]2C(=O)c3ccc(OC)cc3[C@H]2c2ccc(OCCN3CCC(C)CC3)cc2)cc1				IC50 [9]: 3.94 µM; IC50 [10]: 7.16 µM; IC50 [11]: 0.51 µM
COc1ccc(C2CC(=O)c3cc(OC)c(OC)c(OC)c32)cc1Cl (stereo not drawn)	2.52 µM	2.13 µM	0.31 µM	
COc1ccc(C2CC(=O)c3cc(OC)c(OC)c(OC)c32)cc1Br (stereo not drawn)	4.87 µM	3.52 µM	0.8 µM	
COc1ccc(C2CC(=O)c3cc(OC)c(OC)c(OC)c32)cc1[N+](=O)[O-] (stereo not drawn)	2.73 µM	2.22 µM	1.93 µM	
CC[C@]1(O)C[C@H]2CN(CCc3c([nH]c4ccccc34)[C@@](C(=O)OC)(c3cc4c(cc3OC)N(C=O)[C@H]3[C@@](O)(C(=O)OC)[C@H](OC(C)=O)[C@]5(CC)C=CCN6CC[C@]43[C@@H]65)C2)C1				Activity [12]: Active
COc1ccc([C@H]2NC(=O)c3cc(OC)cc(OC)c32)cc1				IC50 [13]: > 100 µM
CCOc1ccc([C@@H]2CC(=O)c3cc(OC)c(OC)c(OC)c32)cc1F				IC50 [14]: 1.05 µM; IC50 [15]: 0.58 µM; IC50 [5]: 4.52 µM; IC50 [7]: 3.69 µM; IC50 [8]: 10.8 µM
COc1ccc([C@H]2NC(=O)c3cc(OC)c(OC)c(OC)c32)cc1				IC50 [13]: 52 µM
CCOc1ccc(C2CC(=O)c3cc(OC)c(OC)c(OC)c32)cc1F (stereo not drawn)	0.51 µM	0.37 µM	0.24 µM	Ratio IC50 [16]: 42; IC50 [14]: 0.66 µM; IC50 [15]: 0.35 µM; IC50 [5]: 3.6 µM; Ratio IC50 [17]: 54; IC50 [7]: 1.81 µM; IC50 [8]: 5.24 µM; Ratio IC50 [18]: 71
COc1cc(C2CC(=O)c3cc(OC)c(OC)c(OC)c32)cc(OC)c1OC (stereo not drawn)	> 100 µM	> 100 µM	> 100 µM	
COc1ccc(C2CC(=O)c3cc(OC)c(OC)c(OC)c32)cc1F (stereo not drawn)	0.7 µM	0.6 µM	0.25 µM	
COc1cc(OC)cc(C2CC(=O)c3cc(OC)c(OC)c(OC)c32)c1 (stereo not drawn)	> 100 µM	> 100 µM	> 100 µM	
COc1cc2c(c(OC)c1OC)-c1ccc(OC)c(=O)cc1[C@@H](NC(C)=O)CC2 [COLCHICINE]	0.043 µM	0.026 µM	0.035 µM	IC50 at 1.5 h [4]: 9.62 µM; inhibition [19]: Active; IC50 at 1.5 h [6]: 0.17 µM
COc1cc2c(c(OC)c1OC)C(c1ccc(OC(C)(C)C)cc1)CC2=O (stereo not drawn)	12.6 µM	9.15 µM	15.4 µM	
COc1cc2c(c(OC)c1OC)C(c1ccc(SC)cc1)CC2=O (stereo not drawn)	2.91 µM	2.27 µM	1.82 µM	
CCOc1ccc(C2CC(=O)c3cc(OC)c(OC)c(OC)c32)cc1Cl (stereo not drawn)	2.33 µM	2.08 µM	1.86 µM	
CCOc1ccc(C2CC(=O)c3cc(OC)c(OC)c(OC)c32)cc1 (stereo not drawn)	0.71 µM	0.48 µM	0.3 µM	
COc1ccc(C2CC(=O)c3cc(OC)c(OC)c(OC)c32)cc1I (stereo not drawn)	7.58 µM	7.22 µM	8.5 µM	
COc1cc2c(c(OC)c1OC)C(c1ccc(OC(C)C)cc1)CC2=O (stereo not drawn)	4.98 µM	6.87 µM	17.3 µM	
CCOc1ccc(C2CC(=O)c3cc(OC)c(OC)c(OC)c32)cc1Br (stereo not drawn)	4.11 µM	4.99 µM	8.99 µM	
COc1ccc(C2CC(=O)c3cc(OC)c(OC)c(OC)c32)cc1OC (stereo not drawn)	23.9 µM	8.21 µM	13.3 µM	
